Among the data in PubChem BioAssay AID2060625 (Molecular Pharmacology Branch, DTP, NCI, 2025) are IC50 and viability, T/C values, retold here.

The assay relates to 186277-243-T-J2-PDC spheroids with HUVEC/MSC, viability. The assay is described as follows: Anticancer human tumor 186277-243-T-J2-PDC patient-derived colon adenocarcinoma cell line growth inhibition [CLK]. The conditions noted are these: for viability, T/C: stronger effect = lower value. Summed up:
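Patient-derived tumor cells grown as complex spheroids with HUVEC endothelial cells and mesenchymal stem cells, treated with drug combinations. Concentrations descend in half-log steps from near clinical Cmax, or from 10 microM if Cmax unknown.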

[1] abbreviates: curve of first compound, second compound 0.0316 µM.
The mark [2] stands for this setting: curve of first compound, second compound 0.1 µM.
Where [3] appears, read: curve of first compound, second compound 0.316 µM.
[4] abbreviates: curve of first compound, second compound 1 µM.
[5] abbreviates: curve of first compound, second compound 3.16 µM.
[6] abbreviates: curve of first compound, second compound 10 µM.

Several values for one entry are separate records, joined by “and”; a condition that tells them apart may be missing. Equal values may be shown once. A value given as a limit tells only on which side of the number the result lay.
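Further: compound exposure lasted seven days before readout.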
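Wherever viability, T/C is given: 100% = DMSO vehicle control wells.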

For the molecule `C=CC(=O)Nc1cc(Nc2nccc(-c3cn(C)c4ccccc34)n2)c(OC)cc1N(C)CCN(C)C` + CNC(=O)c1ccc(Nc2nc(OC3CCCC3)c3c(-c4ccc5nc(C)oc5c4)c[nH]c3n2)c(OC)c1, the IC50 (in general, the concentration that gives 50% inhibition) is over 0.3 µM under setting [1]; 0.203 µM under setting [2]; under 0.000949 µM under setting [3]; under 0.000949 µM under setting [4]; under 0.000949 µM under setting [5]; under 0.000949 µM under setting [6]. Further, the viability, T/C (in general, the ratio of treated to control) (second compound 0.0316 µM, first compound 0.000949 µM) is 118%; the viability, T/C (second compound 0.0316 µM, first compound 0.003 µM) was 109%; the viability, T/C (second compound 0.0316 µM, first compound 0.00949 µM) is 101%; the viability, T/C (second compound 0.0316 µM, first compound 0.03 µM) was 93.7%; the viability, T/C (second compound 0.0316 µM, first compound 0.0949 µM) was 97.9%; the viability, T/C (second compound 0.0316 µM, first compound 0.3 µM) is 101%. For the same molecule, the viability, T/C is, setting by setting: (second compound 0.1 µM, first compound 0.000949 µM) 84.3%; (second compound 0.1 µM, first compound 0.003 µM) 76.1%; (second compound 0.1 µM, first compound 0.00949 µM) 73.1%; (second compound 0.1 µM, first compound 0.03 µM) 68%; (second compound 0.1 µM, first compound 0.0949 µM) 57.4%; (second compound 0.1 µM, first compound 0.3 µM) 46%. In addition, the viability, T/C runs as follows: (second compound 0.316 µM, first compound 0.000949 µM) 48.7%; (second compound 0.316 µM, first compound 0.003 µM) 46.7%; (second compound 0.316 µM, first compound 0.00949 µM) 45%; (second compound 0.316 µM, first compound 0.03 µM) 43.4%; (second compound 0.316 µM, first compound 0.0949 µM) 39.4%; (second compound 0.316 µM, first compound 0.3 µM) 24.1%. Besides, the viability, T/C by setting is: (second compound 1 µM, first compound 0.000949 µM) 37.4%; (second compound 1 µM, first compound 0.003 µM) 36.5%; (second compound 1 µM, first compound 0.00949 µM) 32.7%; (second compound 1 µM, first compound 0.03 µM) 30.3%; (second compound 1 µM, first compound 0.0949 µM) 27%; (second compound 1 µM, first compound 0.3 µM) 18.1%. Moreover, the viability, T/C reads like this: (second compound 3.16 µM, first compound 0.000949 µM) 36.3%; (second compound 3.16 µM, first compound 0.003 µM) 33.5%; (second compound 3.16 µM, first compound 0.00949 µM) 32.3%; (second compound 3.16 µM, first compound 0.03 µM) 28.6%; (second compound 3.16 µM, first compound 0.0949 µM) 24.8%; (second compound 3.16 µM, first compound 0.3 µM) 17.4%. Also, the viability, T/C by setting is: (second compound 10 µM, first compound 0.000949 µM) 37.2%; (second compound 10 µM, first compound 0.003 µM) 35.6%; (second compound 10 µM, first compound 0.00949 µM) 33%; (second compound 10 µM, first compound 0.03 µM) 32.4%; (second compound 10 µM, first compound 0.0949 µM) 29.3%; (second compound 10 µM, first compound 0.3 µM) 21.1%.
In the case of `COc1ccc([C@@H](O)c2cc(-c3ncnc4cc(N5CCOCC5)ccc34)c(F)cc2Cl)nn1` + CNC(=O)c1ccc(Nc2nc(OC3CCCC3)c3c(-c4ccc5nc(C)oc5c4)c[nH]c3n2)c(OC)c1, the IC50 under setting [1] worked out at 7.66 µM; the IC50 under setting [2] was found to be 0.384 µM; the IC50 under setting [3] was under 0.0316 µM; the IC50 under setting [4] is under 0.0316 µM; the IC50 under setting [5] is under 0.0316 µM; the IC50 under setting [6] is under 0.0316 µM. The viability, T/C was 102% (second compound 0.0316 µM, first compound 0.0316 µM); 86.8% (second compound 0.0316 µM, first compound 0.1 µM); 110% (second compound 0.0316 µM, first compound 0.316 µM); 87.6% (second compound 0.0316 µM, first compound 1 µM); 73.7% (second compound 0.0316 µM, first compound 3.16 µM); 43% (second compound 0.0316 µM, first compound 10 µM). In addition, the viability, T/C reads like this: (second compound 0.1 µM, first compound 0.0316 µM) 71.8%; (second compound 0.1 µM, first compound 0.1 µM) 62.5%; (second compound 0.1 µM, first compound 0.316 µM) 50.2%; (second compound 0.1 µM, first compound 1 µM) 42.7%; (second compound 0.1 µM, first compound 3.16 µM) 31.9%; (second compound 0.1 µM, first compound 10 µM) 23.5%. Further, the viability, T/C (second compound 0.316 µM, first compound 0.0316 µM) is 38.7%; the viability, T/C (second compound 0.316 µM, first compound 0.1 µM) was 40.7%; the viability, T/C (second compound 0.316 µM, first compound 0.316 µM) was 29.9%; the viability, T/C (second compound 0.316 µM, first compound 1 µM) is 23.7%; the viability, T/C (second compound 0.316 µM, first compound 3.16 µM) was 18.6%; the viability, T/C (second compound 0.316 µM, first compound 10 µM) is 14.5%. In addition, the viability, T/C by setting is: (second compound 1 µM, first compound 0.0316 µM) 30.4%; (second compound 1 µM, first compound 0.1 µM) 25.2%; (second compound 1 µM, first compound 0.316 µM) 23.4%; (second compound 1 µM, first compound 1 µM) 16.2%; (second compound 1 µM, first compound 3.16 µM) 12.9%; (second compound 1 µM, first compound 10 µM) 12.2%. Further, the viability, T/C was 27.1% (second compound 3.16 µM, first compound 0.0316 µM); 29.2% (second compound 3.16 µM, first compound 0.1 µM); 23.2% (second compound 3.16 µM, first compound 0.316 µM); 18.5% (second compound 3.16 µM, first compound 1 µM); 16% (second compound 3.16 µM, first compound 3.16 µM); 10.7% (second compound 3.16 µM, first compound 10 µM). Also, the viability, T/C is 28.7% (second compound 10 µM, first compound 0.0316 µM); 29.5% (second compound 10 µM, first compound 0.1 µM); 23.2% (second compound 10 µM, first compound 0.316 µM); 19.8% (second compound 10 µM, first compound 1 µM); 17.2% (second compound 10 µM, first compound 3.16 µM); 9% (second compound 10 µM, first compound 10 µM).
For the molecule `Cn1ncnc1[C@H]1c2n[nH]c(=O)c3cc(F)cc(c23)N[C@@H]1c1ccc(F)cc1`, the viability, T/C by setting is: (compound 0.000316 µM) 99.8% and 98.2%; (compound 0.001 µM) 73.1% and 89.7%; (compound 0.00316 µM) 109% and 110%; (compound 0.01 µM) 100% and 103%; (compound 0.0316 µM) 115% and 127%; (compound 0.1 µM) 121% and 134%. In addition, where the note is “curve of compound”, the IC50 is over 0.1 µM.
In the case of `CN1CCN(c2cc(C(=O)Nc3cc4cc(-c5cnn(C)c5)ccc4cn3)ccn2)CC1`, the viability, T/C is 23.7% [middle of 11 runs] (compound 0.316 µM), 0.99% [middle of 10 runs] (compound 1 µM), 1.22% [middle of 11 runs] (compound 3.16 µM) and 1.7% [middle of 11 runs] (compound 10 µM). In addition, where the note is “compound alone, run of 08/14/2023”, the half-inhibitory concentration (IC50) is 192 nM [middle of 11 runs].
